In test [1] the target is HiBit-IL23R and LgBit-IL12Rβ1 (Homo sapiens, UniProt Q5VWK5). As to conditions: 10 μM P630. An excerpt:
Finally, we utilised a NanoBiT BRET system in which a complemented luciferase with fragments bound to both receptor subunits (Fig. 3) can be used as a BRET donor to measure interactions with binary receptor complexes.
Data in b are mean ± SEM from three independent experiments. In each individual experiment, triplicate determinations were made for total binding and duplicate or triplicate determinations made for non-specific binding. Data in c are the mean values obtained in five independent experiments, each conducted with six replicates. […] Data in d are the mean ± SEM from five (NL-IL23R and NL-23R + IL12Rβ1) or three (HiBit-IL23R + LgBit-IL12Rβ1) independent experiments. Source data are provided as a Source Data file.

The target in test [2] is T1, NL-IL23R and IL12Rβ1 (IL-23 receptor) on HEK293T cells (Homo sapiens, UniProt P42701+Q5VWK5).
T1 construct: expressed in transfected cells; host or cells: HEK293T (ATCC CRL-3216), transient transfection
T1 sequence (Q5VWK5 24-629, other chains not shown): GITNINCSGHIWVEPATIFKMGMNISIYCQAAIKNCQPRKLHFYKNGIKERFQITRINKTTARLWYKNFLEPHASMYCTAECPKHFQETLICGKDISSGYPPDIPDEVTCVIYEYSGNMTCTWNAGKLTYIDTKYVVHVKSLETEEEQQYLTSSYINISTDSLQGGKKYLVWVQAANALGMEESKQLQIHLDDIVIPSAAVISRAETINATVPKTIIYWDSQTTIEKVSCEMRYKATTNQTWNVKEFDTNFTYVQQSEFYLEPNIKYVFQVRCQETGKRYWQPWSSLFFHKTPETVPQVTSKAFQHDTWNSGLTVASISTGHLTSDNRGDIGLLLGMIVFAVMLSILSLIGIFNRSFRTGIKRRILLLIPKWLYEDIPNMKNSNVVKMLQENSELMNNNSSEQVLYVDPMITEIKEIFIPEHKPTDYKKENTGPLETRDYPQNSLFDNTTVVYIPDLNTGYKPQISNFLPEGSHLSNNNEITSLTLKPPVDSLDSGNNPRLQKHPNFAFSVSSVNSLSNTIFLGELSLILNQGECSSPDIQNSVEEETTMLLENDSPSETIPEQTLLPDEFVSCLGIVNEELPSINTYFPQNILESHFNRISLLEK
Put plainly: P630-TMR NanoBRET competition assay. In kind it is binding. As to conditions: Fig. 5a. As to the method:
(§1) Transient transfections for experiments outlined in Fig. 6 were conducted by seeding 100 μL of 2 × 10^5 cells/ml concentrated HEK293T cells into poly-D-lysine (PDL) coated white 96 well clear bottom assay microplates (Greiner) and incubating overnight. The following day transfection mixes were made up that contained a 4:1 ratio of IL23R to IL12Rβ1 constructs to a total concentration of 100 ng per well with a 0.3 μL per well of FuGENE HD transfection reagent (Promega) in OptiMEM (Gibco). These mixtures were incubated for 10 min before being added to the plate at 5 μL per well. The cells were then incubated overnight to allow expression. For all other experiments 2 mL containing 4 × 10^5 cells were seeded into 6 well plates and incubated 5 h before being transiently transfected with 100 μL per well of a transfection mix containing 2 μg of DNA and 6 μL of FuGENE HD. These cells were then incubated overnight before being re-suspended the following day and seeded into PDL coated white assay microplates at 100 μL containing 3 × 10^4 transfected cells. Cells were then incubated overnight before the experiment. Estimates of total expression levels for the different NL-constructs were made by comparing the luminescence levels achieved to that of a NanoLuciferase standard curve measured under the same conditions (Supplementary Fig. 1).
Media was removed from white 96-well microplates containing transfected cells and replaced with fluoroprobe in the presence or absence of antagonist in 50 μL Hanks Balanced Salt Solution (HBSS) with 1 mg/mL BSA (Merck). After a 1-hour incubation at 37 °C without CO2, 5 μL of HBSS containing 77 μM furimizine was added to each well (final concentration 7 μM), the plate incubated for 5-minutes and the BRET signal measured using a PheraStar FS plate reader (BMG Labtech; data acquisition software version 5.41; MARS analysis software version 3.32) with a 450 ± 30 nm and >550 nm long pass filters.
(§2) Antagonist competition data were fit with the equation:4 Y=Bmin+Bmax−Bmin/1+10^(LogXC50−[A])C Where ‘Bmax’ is the maximum BRET signal, ‘Bmin’ is the minimum BRET signal, ‘LogXC50’ is the log of the 50% inhibiting concentration of antagonist, ‘[A]’ is the concentration of antagonist and ‘C’ is the Hill slope.
On the technique in general: In BRET a luciferase serves as donor, and the signal depends on an acceptor being close.

Test [3] addresses T1, NL-IL23R and IL12Rβ1 (IL-23 receptor) on HEK293T cells. Description: IL23-TMR NanoBRET competition assay. As to conditions: 300 pM IL23-TMR. In kind it is binding. As to the method: Schematic created with Biorender.com. IL23R is shown in orange, IL12Rβ1 in purple, IL23p19 in blue, IL12p40 in green and the presence of a TAMRA fluorophore by a pink star. […] In b and c, data are mean ± SEM from 5 independent experiments conducted in either duplicate or triplicate. Details on absolute number of data points included for each concentration are provided in the associated Source Data file.
as §1
Media was removed from white 96-well microplates containing transfected cells and replaced with fluoroprobe in the presence or absence of antagonist in 50 μL Hanks Balanced Salt Solution (HBSS) with 1 mg/mL BSA (Merck).
as §2

Consider one compound from paper PMC10199020 (Nature Communications, 2023).

SMILES strings stand for the structures.

Chain of HiBit-IL23R and LgBit-IL12Rβ1 (Q5VWK5 24-629, other chains not shown): as above

With `COc1ccc(C[C@H](NC(=O)[C@H]2NC(=O)[C@H](CCC(N)=O)NC(=O)[C@H](Cc3c[nH]c4ccccc34)NC(=O)[C@H]([C@@H](C)O)NC(=O)[C@H](CC(N)=O)NC(=O)[C@@H](NC(C)=O)C(C)(C)SSC2(C)C)C(=O)N[C@@H](Cc2ccc3ccccc3c2)C(=O)NC(C)(C)C(=O)N[C@@H](CCC(=O)O)C(=O)N[C@@H](CC(N)=O)C(=O)N[C@@H](CC(N)=O)C(N)=O)cc1` [P630], in test [1], the “Effect on receptor dimerisation (NanoLuc complementation)” value is reported as “did not affect receptor dimerisation”. For the same compound, the “Displacement of 75 nM P630-TMR (Mean)” value in test [2] ([P630] -4.69897 logM) is on record as 100.016; in test [2] ([P630] -5.69897 logM), 98.9078; in test [2] ([P630] -6.69897 logM) it was 89.0568; in test [2] ([P630] -7.69897 logM), 51.2574; in test [2] ([P630] -8.69897 logM), 11.835; in test [2] ([P630] -9.69897 logM) it was -0.3727. In addition, the “Displacement of 75 nM P630-TMR (Mean)” value in test [2] ([P630] -10.699 logM) is 3.757; in test [2] ([P630] -11.699 logM), 1.217. In addition, the “Inhibition of IL23-TMR binding (Mean)” value in test [3] ([P630] -5.09151 logM) stood at 84.0625; in test [3] ([P630] -5.56864 logM), 77.8076; in test [3] ([P630] -6.04576 logM), 62.3503; in test [3] ([P630] -6.52288 logM), 55.1992; in test [3] ([P630] -7 logM) it was 30.8209; in test [3] ([P630] -7.47712 logM) it was 11.8559. Moreover, the “Inhibition of IL23-TMR binding (Mean)” value is 6.902 in test [3] ([P630] -7.95424 logM), 4.004 in test [3] ([P630] -8.90849 logM), -5.834 in test [3] ([P630] -9.38561 logM) and 10.7231 in test [3] ([P630] -9.86273 logM).
